The NIST ThermoML archive (doi:10.1021/je900656c)
± gives the expanded uncertainty stated by the source. Values belong to the molecule of their own block, whether it stands above or below them.

Columns and labels:
[1] = 303.15 K, 101 kPa, Liquid; for viscosity: Capillary tube (Ostwald / Ubbelohde) method; for mass density: Pycnometric method
[2] = wn = mass fraction of the nth substance listed; settings: 303.15 K, 101 kPa, Liquid; for viscosity: Capillary tube (Ostwald / Ubbelohde) method; for mass density: Pycnometric method

- viscosity [1]: 0.523 ± 0.01 mPa·s
- mass density [1]: 782 ± 1 kg/m3
SMILES: CO [methanol]

- viscosity ([2]; w2 = 0): 0.523 ± 0.01 mPa·s
- mass density ([2]; w2 = 0): 782 ± 1 kg/m3
SMILES: CO [methanol] + COCCO

- viscosity ([2]; w1 = 0.1): 0.538 ± 0.011 mPa·s
- viscosity ([2]; w1 = 0.2): 0.557 ± 0.011 mPa·s
- viscosity ([2]; w1 = 0.3): 0.577 ± 0.011 mPa·s
- viscosity ([2]; w1 = 1): 1.404 ± 0.023 mPa·s
- mass density ([2]; w1 = 0.1): 798 ± 1 kg/m3
- mass density ([2]; w1 = 0.2): 817 ± 2 kg/m3
- mass density ([2]; w1 = 0.3): 833 ± 2 kg/m3
- mass density ([2]; w1 = 1): 956 ± 2 kg/m3
SMILES: COCCO [2-methoxyethan-1-ol] + CO

- viscosity [1]: 1.404 ± 0.023 mPa·s
- mass density [1]: 956 ± 2 kg/m3
SMILES: COCCO [2-methoxyethan-1-ol]
